Publication PMC9033141, “Beta and Gamma Amino Acid-Substituted Benzenesulfonamides as Inhibitors of Human Carbonic Anhydrases” (Pharmaceuticals, 2022)
Like-named read-outs stand apart in the source and are kept apart here.

Tests used:
[1] = target: T1, CAII (Homo sapiens, UniProt P00918); conditions: FTSA, pH 7.0, 37 °C; taken from previous publication; read-out: Observed Dissociation Constant (Kd_obs), CAII; cited from earlier work;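 on Intrinsic Gibbs energy change (ΔGint), CAII: recombinant human CAII, thermal shift with ANS dye fluorescence, Kd_obs from fitting melting temperature versus ligand concentration, intrinsic values corrected for deprotonated sulfonamide and Zn-bound water fractions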
T1 construct: made in house; host or cells: E. coli

[2] = target: T2, CAI (Homo sapiens, UniProt P00915); conditions: FTSA, pH 7.0, 37 °C; taken from previous publication; read-out: Observed Dissociation Constant (Kd_obs), CAI; cited from earlier work;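 on Intrinsic Gibbs energy change (ΔGint), CAI: human CAI expressed in E. coli, ANS fluorescence thermal shift with Kd fitted from melting temperature versus ligand concentration, intrinsic values correct for deprotonated sulfonamide and Zn-water CA fractions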
T2 construct: made in house; host or cells: E. coli

[3] = target: T3, CAXII (Homo sapiens, UniProt O43570); conditions: FTSA, pH 7.0, 37 °C; taken from previous publication; read-out: Observed Dissociation Constant (Kd_obs), CAXII; cited from earlier work;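 on Intrinsic Gibbs energy change (ΔGint), CAXII: recombinant CAXII made in E. coli, ANS-fluorescence thermal shift with affinity fitted from Tm versus ligand concentration, intrinsic energy from Kd_obs corrected for deprotonated sulfonamide and Zn-water fractions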
T3 construct: made in house; host or cells: E. coli

[4] = target: T4, CAIX (Homo sapiens, UniProt Q16790); conditions: FTSA, pH 7.0, 37 °C; taken from previous publication; read-out: Observed Dissociation Constant (Kd_obs), CAIX; cited from earlier work
T4 construct: made in house

[5] = target: T5, CAIV (Homo sapiens, UniProt P22748); assay: Fluorescent thermal shift assay (FTSA), CAIV; type: binding; conditions: for Intrinsic Gibbs energy change (ΔGint), CAIV: 37 °C, calculated (Equation 5); for Kd: FTSA, pH 7.0, 37 °C, read-out: Observed Dissociation Constant (Kd_obs), CAIV;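 on all read-outs here: recombinant human enzyme, thermal denaturation followed by ANS fluorescence, melting temperature versus ligand concentration fitted for Kd_obs, intrinsic value corrected for deprotonated sulfonamide and Zn-bound water fractions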
T5 construct: made in house; host or cells: E. coli
Description: (§1) Human CA isozymes were expressed in E. coli (CAI, II, III, IV, VA, VB, VII, XII, XIII, XIV) or mammalian cells (CAVI and CAIX), chromatographically purified following the published protocols [47], and stored at −80 °C. The protein concentration was determined by UV absorption at 280 nm using Beer–Lambert law.
(§2) The QIAGEN Rotor-Gene Q was used to carry out the experiments, with a blue channel used for excitation (365 nm) and detection (460 nm). FTSA in this case relies on an extrinsic probe, 8-anilino-1-naphthalenesulfonate (ANS), to detect the fluorescence increase during protein denaturation, from which protein melting temperature (Tm) can be determined. […] The observed affinity of ligands for CAs was determined by plotting the Tm as a function of ligand concentration and then fitting a curve as described previously [48]. […] Samples were heated from 25 °C to 99 °C at the speed of 1 °C/min.
(§3) The intrinsic thermodynamic parameters were calculated as described in [40]. The intrinsic reaction of inhibitor binding to CA is shown in Equation (1). […] It is known that CA proteins bind sulfonamides only when water molecules are coordinated to the Zn(II) ion, and sulfonamides only bind to CA proteins when their amino group is deprotonated (confirmed by neutron crystallography [53, 54, 55]):(1) CA Zn^II−H2O+RSO2NH^−⇄ CA Zn^II−NH SO2R+H2O
(§4) When calculating Kd_int values, these protein and ligand fractions from Equation (1) have to be accounted for (Equations (2) and (3)). The intrinsic dissociation constant is calculated by multiplying Kd_obs value by the corresponding fractions of protein and ligand (Equation (4)). (2) fRSO2NH^−=10^pH−pKa_RSO2NH2/1+10^pH−pKa_RSO2NH2 (3) fCAZnH2O=1−10^pH−pKa_CAZnH2O/1+10^pH−pKa_CAZnH2O (4) Kd_int=Kd_obs×fRSO2NH^−×fCAZnH2O (5) ΔGint0=RTlnKd_int
(§5) The intrinsic standard Gibbs energy changes upon binding were calculated using Equation (5). Here, R—universal ideal gas constant (8.3144 J/mol·K), T—absolute temperature (310.15 K).

[6] = target: T6, CAVA (Homo sapiens, UniProt P35218); assay: Fluorescent thermal shift assay (FTSA), CAVA; type: binding; conditions: for Kd: FTSA
T6 construct: made in house; host or cells: E. coli
Description: as §1, §2, §3, §4, §5

[7] = target: T2, CAI; assay: biochemical; type: binding; conditions: for Intrinsic Gibbs energy change (ΔGint), CAI: 37 °C, calculated (Equation 5); for Kd: FTSA, pH 7.0, 37 °C, read-out: Observed Dissociation Constant (Kd_obs), CAI
[8] = target: T7, CAIII (Homo sapiens, UniProt P07451); assay: Fluorescent thermal shift assay (FTSA), CAIII; type: binding; conditions: FTSA, pH 7.0, 37 °C; read-out: Observed Dissociation Constant (Kd_obs), CAIII
T7 construct: made in house; host or cells: E. coli
Description: as §1, §2, §3, §4, §5

[9] = target: T8, CAVII (Homo sapiens, UniProt P43166); assay: Fluorescent thermal shift assay (FTSA), CAVII; type: binding; conditions: for Intrinsic Gibbs energy change (ΔGint), CAVII: 37 °C, calculated (Equation 5); for Kd: FTSA, pH 7.0, 37 °C, read-out: Observed Dissociation Constant (Kd_obs), CAVII
T8 construct: made in house; host or cells: E. coli
Description: as §1, §2, §3, §4, §5

[10] = target: T9, CAXIV (Homo sapiens, UniProt Q9ULX7); assay: Fluorescent thermal shift assay (FTSA), CAXIV; type: binding; conditions: for Intrinsic Gibbs energy change (ΔGint), CAXIV: 37 °C, calculated (Equation 5); for Kd: FTSA, pH 7.0, 37 °C, read-out: Observed Dissociation Constant (Kd_obs), CAXIV;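 on all read-outs here: recombinant human CA XIV from E. coli, ANS-based thermal shift: Kd_obs fitted from melting temperature versus ligand concentration, ΔGint from Kd_obs corrected for deprotonated sulfonamide and Zn-water fractions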
T9 construct: made in house; host or cells: E. coli
Description: as §1, §2, §3, §4, §5

[11] = target: T10, CAXIII (Homo sapiens, UniProt Q8N1Q1); assay: biochemical; conditions: Observed Dissociation Constant (Kd_obs), FTSA, pH 7.0, 37 °C
[12] = target: T4, CAIX; assay: biochemical; type: binding; conditions: for Intrinsic Gibbs energy change (ΔGint), CAIX: 37 °C, calculated (Equation 5); for Kd: FTSA, pH 7.0, 37 °C, read-out: Observed Dissociation Constant (Kd_obs), CAIX
Description: as §1, §2
(§6) The intrinsic thermodynamic parameters were calculated as described in [40]. The intrinsic reaction of inhibitor binding to CA is shown in Equation (1).
as §4, §5

[13] = target: T1, CAII; assay: biochemical; type: binding; conditions: for Intrinsic Gibbs energy change (ΔGint), CAII: 37 °C, calculated (Equation 5); for Kd: FTSA, pH 7.0, 37 °C, read-out: Observed Dissociation Constant (Kd_obs), CAII
Description: as §1, §2, §6, §4, §5

[14] = target: T11, CAVI (Homo sapiens, UniProt P23280); assay: Fluorescent thermal shift assay (FTSA), CAVI; type: binding; conditions: for Intrinsic Gibbs energy change (ΔGint), CAVI: 37 °C, calculated (Equation 5); for Kd: FTSA, pH 7.0, 37 °C, read-out: Observed Dissociation Constant (Kd_obs), CAVI;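 on all read-outs here: human CAVI expressed in mammalian cells, ANS fluorescence tracked during thermal unfolding, melting temperature fitted against ligand concentration, intrinsic values corrected for deprotonated sulfonamide and Zn-bound water fractions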
T11 construct: made in house
Description: as §1, §2, §3, §4, §5

[15] = target: T12, CAVB (Homo sapiens, UniProt Q9Y2D0); assay: Fluorescent thermal shift assay (FTSA), CAVB; type: binding; conditions: for Intrinsic Gibbs energy change (ΔGint), CAVB: 37 °C, calculated (Equation 5); for Kd: FTSA, pH 7.0, 37 °C, read-out: Observed Dissociation Constant (Kd_obs), CAVB
T12 construct: made in house; host or cells: E. coli
Description: as §1, §2, §3, §4, §5

[16] = target: T10, CAXIII; conditions: 37 °C; calculated (Equation 5)
[17] = Determination of compound sulfonamide group pKa (UV-Vis spectra at different pH); type: physicochemical
Description: To calculate the intrinsic thermodynamic parameters of compound binding to CA isozymes, the pKa values of the sulfonamide group and the water molecule bound to the Zn(II) ion at the active site of CA proteins had to be determined. The pKa values for CA isozyme-bound water molecules were taken from, CAI—8.1; CAII—6.9; CAIII—6.5; CAIV—6.6; CAVA—6.7; CAVB—7.0; CAVI—6.0; CAVII—6.8; CAIX—6.6; CAXII—6.8; CAXIII—8.0; CAXIV—6.1. […] The pKa values were calculated as described previously in [28, 52] by normalizing the absorbance, plotting it as a function of pH, then fitting to the Henderson–Hasselbalch equation using the least square method (Figure S105).
Since the pKa values were only able to be measured for compound group 26–36, due to universal buffer pH limitations, intrinsic thermodynamic parameters were not calculated for compounds 2(a,b)–25(a,b), only for compounds 26–36 using experimentally obtained pKa values when possible and using the average pKa value mentioned above for compounds not measured.

[18] = target: T3, CAXII; assay: biochemical; type: binding; conditions: for Intrinsic Gibbs energy change (ΔGint), CAXII: 37 °C, calculated (Equation 5); for Kd: FTSA, pH 7.0, 37 °C, read-out: Observed Dissociation Constant (Kd_obs), CAXII
[19] = target: T1, CAII; assay: Isothermal titration calorimetry (ITC), CAII; type: binding; conditions: pH 7.0, 37 °C, read-out: Observed Dissociation Constant (Kd_obs), CAII, ITC data in brackets
[20] = target: T12, CAVB; assay: Isothermal titration calorimetry (ITC), CAVB; type: binding; conditions: pH 7.0, 37 °C
[21] = target: T10, CAXIII; conditions: read-out: Observed Dissociation Constant (Kd_obs), CAXIII; FTSA, pH 7.0, 37 °C; taken from previous publication; cited from earlier work
[22] = universal buffer, spectrophotometric, 37 °C, read-out: Sulfonamide pKa
[23] = pH 7.0, 37 °C, read-out: Observed Dissociation Constant (Kd_obs), CAVA
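Wherever Intrinsic Gibbs energy change (ΔGint), CAXIII is given: recombinant human CAXIII melting temperature tracked by ANS fluorescence in thermal shift assay, Tm fitted against ligand concentration, intrinsic value corrects Kd for deprotonated sulfonamide and Zn-bound water fractions.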

T12 sequence (Q9Y2D0 34-317): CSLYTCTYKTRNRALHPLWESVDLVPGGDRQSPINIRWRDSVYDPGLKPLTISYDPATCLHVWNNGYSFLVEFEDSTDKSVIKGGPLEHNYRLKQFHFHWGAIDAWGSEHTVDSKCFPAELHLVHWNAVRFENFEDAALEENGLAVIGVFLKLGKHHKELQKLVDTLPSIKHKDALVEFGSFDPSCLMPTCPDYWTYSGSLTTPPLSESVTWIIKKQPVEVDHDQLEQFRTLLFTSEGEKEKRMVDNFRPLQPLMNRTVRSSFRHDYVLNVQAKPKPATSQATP
T6 sequence (P35218 39-305): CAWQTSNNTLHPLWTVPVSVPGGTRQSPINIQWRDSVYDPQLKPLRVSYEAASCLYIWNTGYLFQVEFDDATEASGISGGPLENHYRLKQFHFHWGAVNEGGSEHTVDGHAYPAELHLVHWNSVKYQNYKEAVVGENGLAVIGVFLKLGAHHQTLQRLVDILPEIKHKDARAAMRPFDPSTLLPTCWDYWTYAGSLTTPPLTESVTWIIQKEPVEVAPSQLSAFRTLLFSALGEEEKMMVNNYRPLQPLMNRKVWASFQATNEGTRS
T5 sequence (P22748 19-312): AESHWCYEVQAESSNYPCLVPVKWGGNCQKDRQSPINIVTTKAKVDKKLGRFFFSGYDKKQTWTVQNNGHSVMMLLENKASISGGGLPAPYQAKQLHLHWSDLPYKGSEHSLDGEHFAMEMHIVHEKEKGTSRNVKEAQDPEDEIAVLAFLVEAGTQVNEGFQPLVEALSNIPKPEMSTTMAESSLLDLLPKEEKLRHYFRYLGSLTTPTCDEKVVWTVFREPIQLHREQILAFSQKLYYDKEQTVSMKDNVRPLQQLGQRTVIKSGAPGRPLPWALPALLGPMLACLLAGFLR
T2 sequence (P00915 whole entry): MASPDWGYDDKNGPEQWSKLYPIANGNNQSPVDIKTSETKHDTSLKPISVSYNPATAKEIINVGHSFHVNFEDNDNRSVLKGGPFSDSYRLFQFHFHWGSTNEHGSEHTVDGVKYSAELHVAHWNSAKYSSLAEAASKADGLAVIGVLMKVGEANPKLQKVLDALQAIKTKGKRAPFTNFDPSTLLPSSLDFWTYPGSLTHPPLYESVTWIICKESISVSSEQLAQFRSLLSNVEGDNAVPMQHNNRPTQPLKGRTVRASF
T3 sequence (O43570 25-354): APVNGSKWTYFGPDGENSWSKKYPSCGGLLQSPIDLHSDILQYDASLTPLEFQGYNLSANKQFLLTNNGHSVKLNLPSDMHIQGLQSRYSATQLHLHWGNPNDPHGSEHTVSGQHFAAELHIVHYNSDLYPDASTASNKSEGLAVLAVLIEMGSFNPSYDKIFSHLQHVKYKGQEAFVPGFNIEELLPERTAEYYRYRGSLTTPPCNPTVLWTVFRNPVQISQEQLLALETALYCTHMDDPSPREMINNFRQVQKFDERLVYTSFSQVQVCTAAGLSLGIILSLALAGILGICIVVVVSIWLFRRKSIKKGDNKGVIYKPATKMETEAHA
T11 sequence (P23280 21-290 limits assumed): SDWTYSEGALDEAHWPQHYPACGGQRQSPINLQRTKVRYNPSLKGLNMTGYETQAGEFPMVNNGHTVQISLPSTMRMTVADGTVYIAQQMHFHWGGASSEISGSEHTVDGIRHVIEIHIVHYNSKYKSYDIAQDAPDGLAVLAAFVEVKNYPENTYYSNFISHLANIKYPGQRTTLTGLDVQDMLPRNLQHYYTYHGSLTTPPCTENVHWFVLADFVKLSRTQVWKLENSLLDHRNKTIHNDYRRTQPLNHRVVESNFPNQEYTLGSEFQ
T7 sequence (P07451 whole entry): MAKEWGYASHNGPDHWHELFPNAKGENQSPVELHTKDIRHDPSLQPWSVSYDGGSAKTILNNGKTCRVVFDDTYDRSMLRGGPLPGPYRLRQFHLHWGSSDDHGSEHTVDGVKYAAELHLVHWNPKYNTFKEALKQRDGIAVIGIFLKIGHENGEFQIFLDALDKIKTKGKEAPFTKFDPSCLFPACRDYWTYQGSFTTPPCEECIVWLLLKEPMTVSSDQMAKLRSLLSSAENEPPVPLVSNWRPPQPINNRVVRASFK
T9 sequence (Q9ULX7 16-337): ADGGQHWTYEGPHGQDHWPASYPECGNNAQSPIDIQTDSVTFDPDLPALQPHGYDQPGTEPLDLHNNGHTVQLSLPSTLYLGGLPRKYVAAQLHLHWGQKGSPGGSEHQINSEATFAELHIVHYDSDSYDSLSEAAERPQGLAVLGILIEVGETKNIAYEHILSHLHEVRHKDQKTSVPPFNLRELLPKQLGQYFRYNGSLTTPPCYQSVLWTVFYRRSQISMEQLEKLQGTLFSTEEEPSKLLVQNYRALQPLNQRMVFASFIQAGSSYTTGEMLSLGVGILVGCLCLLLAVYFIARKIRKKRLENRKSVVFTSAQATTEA
T10 sequence (Q8N1Q1 whole entry): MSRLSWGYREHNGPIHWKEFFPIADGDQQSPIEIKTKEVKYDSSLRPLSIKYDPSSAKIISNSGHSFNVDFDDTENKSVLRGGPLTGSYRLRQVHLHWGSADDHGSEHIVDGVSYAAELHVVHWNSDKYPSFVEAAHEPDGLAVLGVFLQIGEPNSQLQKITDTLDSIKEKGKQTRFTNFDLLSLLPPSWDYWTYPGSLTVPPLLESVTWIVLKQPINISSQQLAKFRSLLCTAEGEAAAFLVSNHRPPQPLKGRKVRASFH
T8 sequence (P43166 whole entry): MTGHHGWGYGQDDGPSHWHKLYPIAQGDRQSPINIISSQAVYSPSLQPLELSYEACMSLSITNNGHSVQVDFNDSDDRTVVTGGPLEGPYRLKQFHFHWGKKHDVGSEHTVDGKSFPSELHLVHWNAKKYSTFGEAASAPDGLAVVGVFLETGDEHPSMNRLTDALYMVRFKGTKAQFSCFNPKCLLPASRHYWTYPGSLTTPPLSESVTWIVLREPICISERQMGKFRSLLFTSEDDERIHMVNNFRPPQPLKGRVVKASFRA

Compound	Intrinsic Gibbs energy change (ΔGint), CAIV [5] [kcal/mol]	Kd [5] [nM]	Intrinsic Gibbs energy change (ΔGint), CAI [7] [kcal/mol]	Kd [7] [nM]	melting point [°C]	Kd [8] [nM]	Intrinsic Gibbs energy change (ΔGint), CAVII [9] [kcal/mol]	Kd [9] [nM]	Intrinsic Gibbs energy change (ΔGint), CAXIV [10] [kcal/mol]	Kd [10] [nM]	Kd [11] [nM]	Intrinsic Gibbs energy change (ΔGint), CAIX [12] [kcal/mol]	Kd [12] [nM]	Intrinsic Gibbs energy change (ΔGint), CAII [13] [kcal/mol]	Kd [13] [nM]	Intrinsic Gibbs energy change (ΔGint), CAVI [14] [kcal/mol]	Kd [14] [nM]	Intrinsic Gibbs energy change (ΔGint), CAVB [15] [kcal/mol]	Kd [15] [nM]	Intrinsic Gibbs energy change (ΔGint), CAXIII [16] [kcal/mol]	other results
Cc1cc(C)n(C(=O)C2CC(=O)N(c3ccc(S(N)(=O)=O)cc3)C2)n1 (stereo not drawn) [Compound 21]																					Kd [1]: 66 nM; Kd [2]: 250 nM; Kd [3]: 1400 nM; Kd [4]: 220 nM
NC(=S)N(CCC(=O)O)c1ccc(S(N)(=O)=O)cc1 [Compound 26]																					Kd [1]: 5000 nM; Kd [2]: 10000 nM; Kd [3]: 33000 nM; Kd [4]: 10000 nM
COC(=O)CCN(c1ccc(S(N)(=O)=O)cc1)c1nc(C)cs1 [Compound 28, Methyl 3-((4-Methylthiazol-2-yl)(4-sulfamoylphenyl)amino)propanoate]	-13.6	1100	-15	37	72 to 73	≥ 200000	-15.1	77	-16.4	29	250	-15.8	33	-15.3	45	-13.2	7100	-15.2	46	-13.8	Intrinsic Gibbs energy change (ΔGint), CAVA ([6]; 37 °C, calculated (Equation 5)): -11.2 kcal/mol; Kd ([6]; 200 µM the weakest detectable Kd_obs, read-out: Kd_obs, CAVA): 50000 nM; pKa [17, 22]: 10.1; Intrinsic Gibbs energy change (ΔGint), CAXII [18]: -14.3 kcal/mol; Kd [18]: 250 nM; Kd [19]: 59 nM
CCOC(=O)c1sc(N(CCC(=O)O)c2ccc(S(N)(=O)=O)cc2)nc1C [Compound 31, 3-((5-(Ethoxycarbonyl)-4-methylthiazol-2-yl)(4-sulfamoylphenyl)amino)propanoic acid]	-12.5	6700	-12.5	2000	221 to 222	≥ 200000	-13.1	1700	-13.8	2000	450	-14.3	360	-13.5	910	-12.4	24000	-11.5	20000	-13.4	Kd [6, 23]: ≥ 200000 nM; pKa [17, 22]: 10.1; Intrinsic Gibbs energy change (ΔGint), CAXII [18]: -12.6 kcal/mol; Kd [18]: 3800 nM; Kd [19]: 860 nM
CCOC(=O)c1sc(N(CCC(=O)OC)c2ccc(S(N)(=O)=O)cc2)nc1C [Compound 32, Ethyl 2-((3-Methoxy-3-oxopropyl)(4-sulfamoylphenyl)amino)-4-methylthiazole-5-carboxylate]	-12.7	2000	-12.5	830	140 to 141	≥ 200000	-14.2	130	-13.8	770	330	-14.1	190	-14.6	53	-12.4	10000	-14.9	30	-13.1	Kd [6, 23]: ≥ 200000 nM; ΔHobs, CAVB ([20]; 50 mM sodium phosphate buffer, 100 mM NaCl): -9.6 kcal/mol; Kd ([20]; read-out: Observed Dissociation Constant (Kd_obs), CAVB, ITC data in brackets): 41 nM; pKa [17, 22]: 9.7; Intrinsic Gibbs energy change (ΔGint), CAXII [18]: -11.7 kcal/mol; Kd [18]: 7700 nM
CCOC(=O)c1sc(N(CCC(=O)NN)c2ccc(S(N)(=O)=O)cc2)nc1C [Compound 33]	-13	2800	-12.2	3100	206 to 207	≥ 200000	-13.4	1100	-14.3	910	830	-14	630	-13.8	500	-12.4	25000	-14.7	100	-13.1	Kd [6, 23]: ≥ 200000 nM; pKa ([17]; value marked *: average of measured compounds, used for calculation, read-out: Sulfonamide pKa (not determined, average of all measured compounds)): 10.1; Intrinsic Gibbs energy change (ΔGint), CAXII [18]: -11.5 kcal/mol; Kd [18]: 26000 nM
NS(=O)(=O)c1ccc(N(CCC(=O)O)c2nc(-c3ccc(Cl)cc3)cs2)cc1 [Compound 35]																					Kd [21]: 530 nM; Kd [1]: 100 nM; Kd [2]: 25 nM; Kd [3]: 200 nM; Kd [4]: 560 nM
